Results on 1 substance are retold here after article PMC10318527, “Utilization of dietary mixed-linkage β-glucans by the Firmicute Blautia producta” (The Journal of Biological Chemistry, 2023).

For one test, the system named is BPGH16 mutant R331A. The experiment in a line: Kinetics of BPGH16 mutant R331A (DNS assay). The test is classed as biochemical, Blautia producta ATCC 27340. The protocol:
(§1) The residues R331, L358, E379, D381, E384, W362, and H398 of BpGH16MLG were mutated to Ala by the Q5Site-Directed Mutagenesis Kit (New England Biolabs, UK, catalogue no. E0554S). Wild-type plasmid BpGH16-pET28a(+) was used as a template, and mutagenic forward and reverse primers were developed using NEBaseChanger with subtle modifications (Table S4). A 25 μl PCR cocktail was prepared for mutating each residue. The final concentration of Q5 Hot Start High-Fidelity 2X Master Mix was 1X, each primer was at 0.5 μM, the amount of used template was 20 ng, and the rest of the volume was made up of nuclease-free water. PCR was executed using the following conditions-initial denaturation was performed at 98 °C for 1 min, for each cycle-denaturation, annealing, and extension (72 °C) were set for 10 s, 20 s, and 7 min, respectively. A total of 25 cycles were performed, and the final extension was for 5 min 5 μl PCR products were loaded on 0.8% agarose gel to conform to the amplification of the mutagenic gene. Ligation of PCR products and cleavage of methylated template DNA was then performed using 5 μl KLD reaction buffer and 1 μl KLD enzyme cocktail at RT for 1 h. It was then transformed into E. coli TOP-10 cells and plasmids were isolated. The obtained plasmids were sequenced to confirm the mutation at the desired location. Once mutation was confirmed in a gene, the mutant plasmid was transformed into Rosetta (DE3) cells for protein expression. The mutant protein was then expressed as per the protocol mentioned earlier, and kinetics were performed with barley β-glucan.
(§2) Reactions were performed in 100 μl volume mixture using recombinant enzyme (final concentration at 0.1 mg/ml) in 50 mM sodium phosphate buffer (pH 5.7) at 37 °C for 1 h of incubation. Then, reactions were terminated by boiling for 5 min. Enzymatic assays were determined with 3,5- dinitrosalicylic acid (DNS) assay ([85]). In brief, 0.05 g Na2SO3 and 1 g DNS were mixed in a 50 ml water-containing reagent bottle and stirred about 6 h using a magnetic stirrer. After that, 200 μl phenol was added and made up to 100 ml. A working solution of DNS was prepared by adding 50 μl glucose (20% (w/v) stock) in prepared 100 ml of reagent mixtures and immediately used for experiments without adding NaOH. 80 μl DNS reagent was added to the reaction mixtures and incubated at 100 °C for 10 min, followed by ice-cooling for 10 min. Consequently, recorded the developed color spectrophotometrically at 575 nm ([85]). A standard curve generated by different concentrations of maltose was used for determining released reducing sugars in each case.

In another test the test system is BPGH16 mutant L358A. The test is described as follows: Kinetics of BPGH16 mutant L358A (DNS assay). The test is classed as biochemical, Blautia producta ATCC 27340. The protocol: (§3) The residues R331, L358, E379, D381, E384, W362, and H398 of BpGH16MLG were mutated to Ala by the Q5Site-Directed Mutagenesis Kit (New England Biolabs, UK, catalogue no. E0554S). Wild-type plasmid BpGH16-pET28a(+) was used as a template, and mutagenic forward and reverse primers were developed using NEBaseChanger with subtle modifications (Table S4). A 25 μl PCR cocktail was prepared for mutating each residue. The final concentration of Q5 Hot Start High-Fidelity 2X Master Mix was 1X, each primer was at 0.5 μM, the amount of used template was 20 ng, and the rest of the volume was made up of nuclease-free water. PCR was executed using the following conditions-initial denaturation was performed at 98 °C for 1 min, for each cycle-denaturation, annealing, and extension (72 °C) were set for 10 s, 20 s, and 7 min, respectively. […] The mutant protein was then expressed as per the protocol mentioned earlier, and kinetics were performed with barley β-glucan.
(§4) Reactions were performed in 100 μl volume mixture using recombinant enzyme (final concentration at 0.1 mg/ml) in 50 mM sodium phosphate buffer (pH 5.7) at 37 °C for 1 h of incubation. […] Enzymatic assays were determined with 3,5- dinitrosalicylic acid (DNS) assay ([85]). […] Consequently, recorded the developed color spectrophotometrically at 575 nm ([85]). […]

The next test deals with BPGH16 mutant D381A. The test is described as follows: Kinetics of BPGH16 mutant D381A (DNS assay). The test is classed as biochemical, Blautia producta ATCC 27340. The procedure:
as §1, §2

The subject of another test is BPGH16 mutant H398A. The experiment in a line: Kinetics of BPGH16 mutant H398A (DNS assay). The test is classed as biochemical, Blautia producta ATCC 27340. The procedure: as §3, §4
Another test has as its target T1, BpGH94MLG (Blautia producta, UniProt A0A7G5MNS2).
T1 sequence (A0A7G5MNS2 1-804): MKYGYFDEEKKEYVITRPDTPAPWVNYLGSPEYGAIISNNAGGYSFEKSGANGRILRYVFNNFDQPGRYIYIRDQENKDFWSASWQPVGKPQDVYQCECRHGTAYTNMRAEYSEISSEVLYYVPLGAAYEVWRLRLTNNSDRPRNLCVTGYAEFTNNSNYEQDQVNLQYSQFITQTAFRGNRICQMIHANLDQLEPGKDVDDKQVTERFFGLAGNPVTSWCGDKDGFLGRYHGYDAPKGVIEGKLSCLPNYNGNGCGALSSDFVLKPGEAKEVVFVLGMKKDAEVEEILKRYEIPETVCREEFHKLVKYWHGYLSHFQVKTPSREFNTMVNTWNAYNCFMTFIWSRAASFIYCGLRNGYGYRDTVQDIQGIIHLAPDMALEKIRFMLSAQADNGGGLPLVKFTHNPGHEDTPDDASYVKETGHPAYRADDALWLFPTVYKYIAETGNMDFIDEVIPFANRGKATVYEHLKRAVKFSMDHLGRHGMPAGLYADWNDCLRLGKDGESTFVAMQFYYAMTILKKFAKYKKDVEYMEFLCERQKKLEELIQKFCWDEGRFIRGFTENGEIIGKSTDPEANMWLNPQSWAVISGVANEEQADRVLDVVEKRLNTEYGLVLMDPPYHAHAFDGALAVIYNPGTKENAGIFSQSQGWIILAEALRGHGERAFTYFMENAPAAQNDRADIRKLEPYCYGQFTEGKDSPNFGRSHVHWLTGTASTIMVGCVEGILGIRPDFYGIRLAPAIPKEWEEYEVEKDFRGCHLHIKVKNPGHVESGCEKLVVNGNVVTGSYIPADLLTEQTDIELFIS
The experiment in a line: Phosphorolysis activity of BpGH94MLG on substrates (TLC). The test is classed as biochemical, Blautia producta ATCC 27340. Particulars: inorganic phosphate, 37 °C. The protocol: TLC was used for analyzing enzymatic actions. […] Kinetics parameters for BpGH94MLG were determined with G4G3G, G4G4G3G and cellotriose, following a p-hydroxybenzoic acid hydrazide (PAHBAH) reducing sugar assay ([69]).

For another test, the system named is BoGH16MLG. The arrangement: method as in PMID 29141231. To be noted: BoGH16MLG with barley MLG, no unit, cited from earlier work.

For Barley β-glucan, the “increase in Km” value in the test on BPGH16 mutant R331A (R331A versus native enzyme) is below 2 fold. In addition, the figures for the reduction in kcat with BPGH16 mutant R331A (R331A versus native enzyme) and with BPGH16 mutant D381A (D381A versus native enzyme) were around 1.3 fold and 1.7 fold, respectively. Moreover, the Km in the test on BPGH16 mutant R331A (mutant R331A, DNS assay) was 0.35 ± 0.05 mg/mL; in the test with BPGH16 mutant D381A (mutant D381A, DNS assay) it was 0.17 ± 0.04 mg/mL; in the test with BoGH16MLG (in mg/mL), 0.364 ± 0.051. Besides, the kcat was 48 ± 0.8 s⁻¹ in the test on BPGH16 mutant R331A (mutant R331A, DNS assay); 0 s⁻¹ in the test on BPGH16 mutant L358A; 35.7 ± 1.1 s⁻¹ in the test with BPGH16 mutant D381A (mutant D381A, DNS assay); 0 s⁻¹ in the test with BPGH16 mutant H398A; 85.8 ± 4.6 with BoGH16MLG (in 1/s). Moreover, the “overall loss in activity” value with BPGH16 mutant D381A (D381A versus native enzyme) stood at 1.34 fold. For the same substance, at BpGH94MLG, the “phosphorolysis activity of BpGH94MLG (in words)” value is given as “catalyzed phosphorolysis”.
